Values belong to the compound of their own block, whether it stands above or below them.
Columns and labels:
[1] = Serum protease stability in 10% fetal calf serum (RP-HPLC); assay type: in vitro ADME; details: 10% FCS
Experimental: The stability of the peptide iVR1-Cys in 10% serum (fetal calf serum, FCS) in a 50 mM phosphate buffer solution, pH 7.3, at 168 h was determined as described by Ponticelli et al., relying on a method based on RP-HPLC chromatography, described therein [Ponticelli et al., J Biol Chem. 2008 Dec. 5; 283 (49): 34250-9].
The reference curve was constructed by dissolving the compound in DMSO at increasing concentrations of between 0.1 μmol/L and 1000 μmol/L in order to have complete dissolution. The concentration of the molecule left in contact with 10% FCS at the initial concentration of 10 μmol/L was then determined by drawing 3 aliquots at time t=0, then every hour in the first 12 hours and then at 24, 72, 120, and 168 h. The aliquots were diluted 1:1 with acetic acid 0.1 M in order to detach any peptide bound to the albumin, centrifuged to remove any precipitated materials and analyzed by RP-HPLC under the conditions reported in Ponticelli et al. The amount of residual peptide detected in the aliquots, expressed as a percentage relative to the initial amount, was plotted as a function of time. The results are shown in Table VII as the mean of the three determinations±the standard deviation (SD).

[2] = target: T1, VEGF-A/VEGFR-1 interaction (Homo sapiens, UniProt P17948); assay: ELISA competition assay of VEGF-A binding to VEGFR-1; details: tetrameric peptides of formula (II) with Y2 different from D-cysteine; read-out: IC50 of inhibition of the interaction VEGF-A/VEGFR-1
T1 construct: the form consisting of the seven extracellular domains of the receptor fused to the Fc domain of human IgG; purchased R&D Systems 321-FL (receptor); 293-VE (VEGF-A)
T1 sequence (P17948 27-758 limits assumed): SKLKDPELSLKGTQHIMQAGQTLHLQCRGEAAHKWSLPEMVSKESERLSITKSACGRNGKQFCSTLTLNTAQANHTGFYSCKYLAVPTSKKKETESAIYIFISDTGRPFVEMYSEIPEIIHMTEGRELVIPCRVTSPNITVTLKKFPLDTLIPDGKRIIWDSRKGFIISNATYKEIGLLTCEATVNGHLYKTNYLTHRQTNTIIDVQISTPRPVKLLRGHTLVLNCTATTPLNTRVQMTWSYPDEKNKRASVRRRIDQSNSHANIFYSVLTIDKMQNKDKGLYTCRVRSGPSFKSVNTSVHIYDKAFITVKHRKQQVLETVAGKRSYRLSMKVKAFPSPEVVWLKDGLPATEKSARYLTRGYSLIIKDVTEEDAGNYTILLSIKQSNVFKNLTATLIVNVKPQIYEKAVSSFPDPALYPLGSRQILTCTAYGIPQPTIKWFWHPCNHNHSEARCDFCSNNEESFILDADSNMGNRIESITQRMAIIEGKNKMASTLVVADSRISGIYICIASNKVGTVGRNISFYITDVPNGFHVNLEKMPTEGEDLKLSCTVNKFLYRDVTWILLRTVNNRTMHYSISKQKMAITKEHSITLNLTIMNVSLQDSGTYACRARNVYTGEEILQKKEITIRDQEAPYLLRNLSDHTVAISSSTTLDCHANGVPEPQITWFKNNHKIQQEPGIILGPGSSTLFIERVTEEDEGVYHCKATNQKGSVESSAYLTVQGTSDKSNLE
Experimental: The binding reaction was conducted for one hour at 37° C., followed by one hour at room temperature. At the end of the binding and/or competition step, anti-human-PIGF biotinylated polyclonal antibodies (R&D Systems, cat No. BAF264) or anti-human-VEGF-A (R&D Systems, cat No. BAF293) were added to the wells at the concentration of 300 ng/ml in PBET. After one hour of incubation at 37° C. followed by one hour at room temperature, an HRP-conjugated avidin-streptavidin system (Vectastain elite ABC kit) and a substrate for HRP (o-phenylenediamine-Sigma, cat No. P1526) were added to the wells. Quantization was performed by determining the absorbance at 490 nm. Any inhibitory activity of the peptides was expressed in terms of % of residual binding, comparing the data obtained for the binding of PIGF or VEGF-A to the receptors in the presence of the tetrameric peptides with those in the absence of the same. iVR1 represented the positive control of the inhibition of the PIGF/VEGFR-1 or VEGF-A/VEGFR-1 interaction.

% residual peptide ± SD ([1]; 0 h, 50 mM phosphate buffer pH 7.3, initial 10 μmol/L): 101 ± 4%
remaining at 1 h, 10 μmol/L ([1]; cattle (fetal calf), 10% fetal calf serum in phosphate buffer, 1 h, pH 7.3, read-out: % residual peptide ± SD): 100 ± 11%
remaining at 2 h, 10 μmol/L ([1]; cattle (fetal calf), 10% fetal calf serum in phosphate buffer, 2 h, pH 7.3, read-out: % residual peptide ± SD): 99 ± 7%
remaining at 3 h, 10 μmol/L ([1]; cattle (fetal calf), 10% fetal calf serum in phosphate buffer, 3 h, pH 7.3, read-out: % residual peptide ± SD): 98 ± 5%
remaining at 4 h, 10 μmol/L ([1]; cattle (fetal calf), 10% fetal calf serum in phosphate buffer, 4 h, pH 7.3, read-out: % residual peptide ± SD): 97 ± 4%
remaining at 5 h, 10 μmol/L ([1]; cattle (fetal calf), 10% fetal calf serum in phosphate buffer, 5 h, pH 7.3, read-out: % residual peptide ± SD): 96 ± 5%
remaining at 6 h, 10 μmol/L ([1]; cattle (fetal calf), 10% fetal calf serum in phosphate buffer, 6 h, pH 7.3, read-out: % residual peptide ± SD): 99 ± 6%
remaining at 7 h, 10 μmol/L ([1]; cattle (fetal calf), 10% fetal calf serum in phosphate buffer, 7 h, pH 7.3, read-out: % residual peptide ± SD): 95 ± 8%
remaining at 8 h, 10 μmol/L ([1]; cattle (fetal calf), 10% fetal calf serum in phosphate buffer, 8 h, pH 7.3, read-out: % residual peptide ± SD): 96 ± 5%
remaining at 9 h, 10 μmol/L ([1]; cattle (fetal calf), 10% fetal calf serum in phosphate buffer, 9 h, pH 7.3, read-out: % residual peptide ± SD): 95 ± 6%
remaining at 10 h, 10 μmol/L ([1]; cattle (fetal calf), 10% fetal calf serum in phosphate buffer, 10 h, pH 7.3, read-out: % residual peptide ± SD): 94 ± 10%
remaining at 11 h, 10 μmol/L ([1]; cattle (fetal calf), 10% fetal calf serum in phosphate buffer, 11 h, pH 7.3, read-out: % residual peptide ± SD): 94 ± 8%
remaining at 12 h, 10 μmol/L ([1]; cattle (fetal calf), 10% fetal calf serum in phosphate buffer, 12 h, pH 7.3, read-out: % residual peptide ± SD): 93 ± 4%
remaining at 24 h, 10 μmol/L ([1]; cattle (fetal calf), 10% fetal calf serum in phosphate buffer, 24 h, pH 7.3, read-out: % residual peptide ± SD): 93 ± 6%
remaining at 72 h, 10 μmol/L ([1]; cattle (fetal calf), 10% fetal calf serum in phosphate buffer, 72 h, pH 7.3, read-out: % residual peptide ± SD): 92 ± 7%
remaining at 120 h, 10 μmol/L ([1]; cattle (fetal calf), 10% fetal calf serum in phosphate buffer, 120 h, pH 7.3, read-out: % residual peptide ± SD): 91 ± 5%
remaining at 168 h, 10 μmol/L ([1]; cattle (fetal calf), 10% fetal calf serum in phosphate buffer, 168 h, pH 7.3, read-out: % residual peptide ± SD): 92 ± 8%
Compound: NC(=O)[C@@H](CS)NC(=O)C(CCCCNC(=O)C(CCCCNC(=O)[C@H](CC1CCCCC1)NC(=O)C(CSCc1ccccc1)NC(=O)[C@H](N)CCC(=O)O)NC(=O)[C@H](CC1CCCCC1)NC(=O)C(CSCc1ccccc1)NC(=O)[C@H](N)CCC(=O)O)NC(=O)C(CCCCNC(=O)[C@H](CC1CCCCC1)NC(=O)C(CSCc1ccccc1)NC(=O)[C@H](N)CCC(=O)O)NC(=O)[C@H](CC1CCCCC1)NC(=O)C(CSCc1ccccc1)NC(=O)[C@H](N)CCC(=O)O (some centres unmarked) [iVR1-Cys]

IC50 [2]: 2430 ± 3000 nM
Compound: D-serine

IC50 [2]: 2030 ± 200 nM
Compound: L-cysteine

IC50 [2]: 4620 ± 1400 nM
Compound: L-methionine sulfone

Reference: patent publication US12653859B2, “Peptides and medical uses thereof” (Anbition S.R.L., priority 2018, dated 2026)
